Reference: ChEMBL document CHEMBL1158265, “Isoprenyl phenyl ethers from liverworts of the genus Trichocolea: cytotoxic activity, structural corrections, and synthesis” (J Nat Prod, 1996)

Experiments:
[1] = test system: Trichophyton mentagrophytes; test: Antifungal activity against Trichophyton mentagrophytes at 60 ug/disk; assay type: functional; details: read-out: IZ
Candida albicans = test: Antifungal activity against Candida albicans at 60 ug/disk; assay type: functional; details: read-out: IZ
[2] = Cytotoxicity against african green monkey BSC1 cells at 60 ug/disk; assay type: cell-based; details: chlorocebus aethiops, bsc-1

SMILES	zone of inhibition at 60 µg/disc [1]	zone of inhibition at 60 µg/disc (Candida albicans)	Activity [2]
COC(=O)c1ccc(O)c(OC)c1 [METHYL VANILLATE]	0 mm	0 mm	25%
COC(=O)c1ccc(OCC=C(C)C)c(OC)c1	2 mm	1 mm	50%
